Data on 1 compound can be found in patent EP4685228A1, “MEDIUM COMPOSITION FOR PROMOTING MUSCLE CELL DIFFERENTIATION COMPRISING QUERCETIN AS ACTIVE INGREDIENT” (Industry Academic Cooperation Foundation of Yeungnam …, priority 2023, dated 2024).

Common to all, as to assay type: cell-based
Test [1] deals with bovine muscle stem cell. Put plainly: muscle cell differentiation (microscope, creatine kinase activity). The note with it: 4 days. The procedure: (§1) Mouse myoblast cell line (C2C12) used was purchased from American Type Culture Collection (ATCC). Muscle stem cells were collected from leg muscles of cows, pigs, and chickens, minced, and reacted with 1% Pronase enzyme at 37°C for 2 hours, followed by centrifugation at 1,000 g for 3 minutes. After centrifugation, the supernatant was removed, and the tissue was suspended in Dulbecco's Modified Eagle's Medium (DMEM) supplemented with 1% penicillin/streptomycin (hereinafter referred to as P/S) and 10% fetal bovine serum (hereinafter referred to as FBS), and then the tissue and cells were separated through a 100 µm filter. The separated cells were centrifuged at 1,000 g for 5 minutes, the supernatant was removed, and the cells were suspended in Ham's F10 growth medium containing 1% P/S, 20% FBS, and 5 ng/mL fibroblast growth factor 2 (FGF2), after which cells were transferred to a cell culture dish and cultured at 37°C in the presence of 5% CO2.
(§2) To determine the effect of quercetin on muscle stem cell differentiation, myoblasts and muscle stem cells being differentiated were treated with different concentrations of quercetin in differentiation medium ([…]) and cultured for 4 days. To compare differentiation rates, creatine kinase activity was analyzed. Myoblasts and muscle stem cells were cultured in differentiation medium for 4 days, then all media were removed, followed by washing with phosphate buffer saline (PBS), 200 µL of new saline was added, and the cells were scraped and collected. Afterwards, the cells were disrupted through sonication, and the supernatant was separated through centrifugation. For analysis of creatine kinase activity, a mixture (100 µL of buffer, 10 µL of substrate, and 1 µL of enzyme) was prepared, and 100 µL of the mixture was treated to 10 µL of the supernatant. Afterwards, the absorbance at 340 nm was measured at 20 and 25 minutes after the start of the reaction using a microplate reader, and the value of creatine kinase activity (U/L) was calculated using the following Equation 1. [formula]
(§3) According to the Experimental Example 2, in order to identify the effect of quercetin on muscle cell differentiation, quercetin was added at various concentrations during differentiation culture of myoblasts and muscle stem cells, and after culturing for 4 days, observation was made under a microscope, followed by analysis of creatine kinase activity to compare the differentiation rate.

Test [2] relates to chicken muscle stem cell. The test is described as above. Particulars: 4 days. The procedure: as §1, §2, §3
The test system of test [3] is porcine muscle stem cell. Described as above. The note with it: 4 days. The procedure: as §1, §2, §3
In test [4] the test system is Mouse myoblast cell line (C2C12). Described as above.
Procedure: To determine the effect of quercetin on muscle stem cell differentiation, myoblasts and muscle stem cells being differentiated were treated with different concentrations of quercetin in differentiation medium (Ham's F10 containing 1% P/S, 20% FBS, and 5 ng/mL FGF2) and cultured for 4 days. To compare differentiation rates, creatine kinase activity was analyzed. Myoblasts and muscle stem cells were cultured in differentiation medium for 4 days, then all media were removed, followed by washing with phosphate buffer saline (PBS), 200 µL of new saline was added, and the cells were scraped and collected. Afterwards, the cells were disrupted through sonication, and the supernatant was separated through centrifugation. For analysis of creatine kinase activity, a mixture (100 µL of buffer, 10 µL of substrate, and 1 µL of enzyme) was prepared, and 100 µL of the mixture was treated to 10 µL of the supernatant. Afterwards, the absorbance at 340 nm was measured at 20 and 25 minutes after the start of the reaction using a microplate reader, and the value of creatine kinase activity (U/L) was calculated using the following Equation 1. [formula] […]
For test [5] the test system is unchanged. The experiment in a line: muscle cell proliferation (microscope, MTS analysis). Particulars: various concentrations, cultured for 4 days, FIGS. 3 and 4. The procedure:
as §1
(§4) To identify the effect of quercetin on muscle stem cell proliferation, myoblasts and muscle stem cells being cultured in proliferation medium (Ham's F10 containing 1% P/S, 20% FBS, and 5 ng/mL FGF2) were treated with various concentrations of quercetin and cultured for 4 days. To compare proliferation rates, MTS analysis was performed. Myoblasts and muscle stem cells were cultured in a proliferation medium for 4 days, and after removing all of the medium, a culture medium in which proliferation medium and MTS reagent are mixed in a ratio of 8:2 was treated to the cells, followed by a reaction for 1 hour. The reacted culture medium was transferred to a 96-well microplate in a volume of 100 µL, and the absorbance of the culture medium contained in each well was measured at 490 nm using a microplate.
(§5) According to the Experimental Example 2, in order to identify the effect of quercetin on muscle cell proliferation, quercetin was added at various concentrations during the proliferation culture of myoblasts and muscle stem cells, and after culturing for 4 days, observation was made under a microscope, followed by MTS analysis for comparison of the proliferation rate.

Test [6] has as its system bovine muscle stem cell. The test is described as above. Particulars: various concentrations, cultured for 4 days, FIGS. 3 and 4. The procedure:
as §1, §4, §5

Test [7] relates to chicken muscle stem cell. The description is as above. Particulars: various concentrations, cultured for 4 days, FIGS. 3 and 4. The procedure:
as §1, §4, §5

Test [8] has as its system porcine muscle stem cell. Described as above. The note with it: various concentrations, cultured for 4 days, FIGS. 3 and 4. The procedure:
as §1, §4, §5

Test [9] deals with muscle differentiation-related factors (MYOD, MYOG, and MYH). The experiment in a line: gene and protein expression of muscle differentiation-related factors (real-time PCR, Western blot). The note with it: 10 nM quercetin, FIG. 7. The procedure: 1 mL of TRIzol (TRIzol™) reagent was added to the cultured cells, and the cells were crushed. 200 µLof chloroform was added to the crushed cells, and centrifugation was performed at 12,000 rpm for 10 minutes. After centrifugation, the upper clear water layer was transferred to a new tube, followed by addition of 500 µLof isopropanol. Afterwards, the mixture was mixed sufficiently and centrifuged at 12,000 rpm for 10 minutes. Thereafter, all supernatants except the RNA pellet were removed, and 1 mL of 70% ethanol was added, followed by washing. Afterwards, all ethanol was removed, and the RNA pellet was dissolved in distilled water containing diethylpyrocarbonate (hereinafter referred to as DEPC). The obtained RNA was quantified using a spectrophotometer, and then 2 µg of total RNA was reacted with reverse transcriptase to synthesize cDNA.
To identify an effect of quercetin on gene expression of muscle differentiation-related factors [myoblast determination protein 1 (hereinafter referred to as MYOD), myogenin (hereinafter referred to as MYOG), and myosin heavy chain (hereinafter referred to as MYH)], real-time PCR was performed. Synthesized cDNA and primers designed using NCBI's primer blast tool; and reagents containing SYBR green fluorescent substance were mixed. Real-time PCR was analyzed via the 7500 real-time PCR from Applied Biosystems.
To determine the effect of quercetin on the protein expression of muscle differentiation-related factors (MYOD, MYOG, and MYH), Western blot was performed. All media of cells being cultured were removed and washed with saline solution. A mixture containing RIPA buffer and 1% protease inhibitor was added to the cells and scraped. After centrifugation at 12,000 rpm for 10 minutes, the supernatant was recovered and quantified using a spectrophotometer. 60 µg of the extracted protein was electrophoresed on a 10% acrylamide gel and transferred to a polyvinylidene fluoride (PVDF) membrane (Milipore). Blocking was performed for 1 hour in tris-buffered saline (TBS) buffer containing 3% skim milk and 1% surfactant (tween-20), and the primary antibody was added. After reacting for 16 hours at 4°C, washing was performed three times for 10 minutes in TBS buffer containing 1% surfactant (Tween-20), followed by a reaction with the secondary antibody for 1 hour at room temperature. Afterwards, washing was performed three times for 10 minutes in TBS buffer containing 1% surfactant (tween-20), followed by development after adding Super Signal West Pico Chemiluminescent Substrate.
According to the above Experimental Example 4, to identify the effect of quercetin on the expression of factors related to muscle differentiation, 10 nM quercetin was added to the process of differentiating myoblasts and muscle stem cells, and gene and protein expression of the factors was analyzed.
In general terms: Real-time PCR tracks product formation cycle by cycle.

Where [10] appears, read: 10 nM and 100 nM treatment groups, FIG. 5.

In the case of `O=c1c(O)c(-c2ccc(O)c(O)c2)oc2cc(O)cc(O)c12` [quercetin], the diameter of myotubes entry with bovine muscle stem cell [1] (setting [10]) is “increased”; in the test with chicken muscle stem cell [2] (setting [10]), “increased”; with porcine muscle stem cell [3] (setting [10]), “increased”; in [4] (mouse myoblast, 10 nM and 100 nM treatment groups, 4 days, FIG. 5), “increased”. Further, the creatine kinase activity result with bovine muscle stem cell [1] (10 nM and 100 nM, FIG. 6) is “significantly increased”; in the test with chicken muscle stem cell [2] (10 nM and 100 nM, FIG. 6), “significantly increased”; with porcine muscle stem cell [3] (10 nM and 100 nM, FIG. 6), “significantly increased”; in [4] (mouse myoblast, 10 nM and 100 nM, 4 days, FIG. 6) it was “significantly increased”. The “creatine kinase activity increase compared to the control group (Con)” value in test [4] (mouse myoblasts, differentiation medium, quercetin 10 nM, antioxidant supplement diluted 1,000-fold, FIG. 8B) is reported as 17%. Besides, the proliferation rate entry (in test [5]; in the test with bovine muscle stem cell [6]; with chicken muscle stem cell [7]; in the test with porcine muscle stem cell [8]) was “no significant change” each time. The MYH expression entry in test [9] (bovine muscle stem cells), in test [9] (chicken muscle stem cells), in test [9] (mouse myoblasts) and in test [9] (porcine muscle stem cells) was “significantly increased” in each case. The MYOD expression result in test [9] (bovine muscle stem cells), in test [9] (mouse myoblasts) and in test [9] (porcine muscle stem cells) was “significantly increased” each time. Further, the MYOG expression entry in test [9] (bovine muscle stem cells), in [9] (chicken muscle stem cells), in test [9] (mouse myoblasts) and in [9] (porcine muscle stem cells) was “significantly increased” in each case.
